Read-outs that look alike come from different tables or passages of the source.
Assays:
[1] = system: Plasmodium falciparum Dd2 asexual blood stage parasites; test: microbe, parasite or virus in culture; set-up: species or system Plasmodium falciparum Dd2 in human erythrocytes; single determination (one 11-point concentration-response curve); settings: 72 h
in vitro = settings: human
[2] = Plasmodium falciparum, DD2, Erythrocyte, read-out: AC50
[3] = HepG2-A16-CD81EGFP cells, uninfected

Compound | AC50 [1, 2] [nM] | viability at 48 h, 1 µM (in vitro; [3]) [%] | viability at 48 h, 3 µM (in vitro; [3]) [%] | other results
Oc1cc2c(cc1CN1CCN(c3cccc(C(F)(F)F)c3)CC1)CCC2 [MLS000570420-01] | 944 | 102 | 101 | 
Cc1ccc(Cl)cc1N1CCN(Cc2cc3c(cc2O)CCC3)CC1 [MLS000572148-01] | 188 | 103 | 99 | 
CCOC(=O)C1=C(c2ccccc2)N=c2sc(=Cc3cc(OC)c(OC)c(OC)c3)c(=O)n2C1c1cccs1 (stereo not drawn) [MLS000572607-01] | 5960 | 82 | 81 | 
CCCCOc1ccc(C(=O)N/C(=C\c2cccc([N+](=O)[O-])c2)C(=O)OC(C)C)cc1 [MLS000574332-01] | 2110 | 101 | 100 | 
COc1cc(NC(=O)c2cc3c(Cl)nc4ccccc4c3s2)cc(OC)c1OC [MLS000582472-01] | 4730 | 90 | 84 | 
CC(C)Oc1ccc(CCc2nnc(S)n2Cc2ccccc2)cc1 [MLS000582839-01] | 5310 | 101 | 103 | 
CC(NCc1ccc(Cl)cc1Cl)C(O)c1ccccc1 (stereo not drawn) [MLS000582862-01] | 4730 |  |  | viability at 48 h, 1 µM (in vitro): 120%; viability at 48 h, 3 µM (in vitro): 104%
Cc1cc(C)cc(/N=C/c2[nH]c3ccc(Br)c(Cl)c3c2O)c1 [MLS000586008-01] | 11900 | 104 | 99 | 
Cc1cc(Nc2ccccc2)nc2cc(O)ccc12 [MLS000586979-01] | 422 | 100 | 100 | 
Cc1ccccc1Nc1cc(C)c2c(O)cccc2n1 [MLS000586981-01] | 5310 | 105 | 100 | 
CCOc1ccc(NC2=C(OC)C(=O)c3ccccc3C2=O)cc1 [MLS000588108-01] | 376 | 101 | 98 | 
Cc1cc(Nc2cccc(F)c2)nc(NCc2ccccc2)n1 [MLS000589387-01] | 8410 | 98 | 87 | 
CC1CCCCN1Cc1c(O)ccc2c(=O)c(-c3nc4ccccc4s3)c(N)oc12 (stereo not drawn) [MLS000591245-01] | 1060 | 98 | 95 | 
CCOC(=O)c1nc2cc3n(c(CC(C)C)c-2c1C)CC(C)=C3C [MLS000594428-01] | 7500 | 108 |  | viability at 48 h (in vitro; [3]): 108%
CCOCc1cnc(C)nc1NCC(=O)c1c(C)[nH]c2cc(C)ccc12 [MLS000595215-01] | 4220 | 97 | 94 | 
O=C(CN1C2=NCCCN2c2ccccc21)c1ccc(Cl)cc1Cl [MLS000662689-01] | 6680 | 99 | 94 | 
O=C(/C=C/c1ccco1)NC(S)=Nc1ccccc1N1CCCC1 [MLS000663784-01] | 2660 | 107 |  | viability at 48 h (in vitro; [3]): 107%
OC(CNCc1cccc(Cl)c1)c1ccccc1 (stereo not drawn) [MLS000674343-01] | 4730 |  |  | viability at 66 h (in vitro; [3]): 106%
CN(C)c1cc[n+](CC(=O)c2ccc(Br)cc2)cc1 [MLS000678949-01] | 7500 |  |  | viability at 66 h (in vitro; [3]): 103%

Compound | AC50 [1, 2] [nM] | viability at 48 h, 1 µM (in vitro; [3]) [%] | viability at 48 h, 3 µM (in vitro; [3]) [%] | other results
Cc1nc(N2CCC(C)CC2)c2c(C)c(C(=O)Nc3ccc(C(F)(F)F)cc3)sc2n1 [MLS000682669-01] | 7500 | 108 | 99 | 
CC1Cc2nc(SCC(=O)Nc3ccc4c(c3)OCO4)n(-c3ccc(F)cc3)c(=O)c2S1 (stereo not drawn) [MLS000685016-01] | 2990 | 97 | 93 | 
COc1cccc(NC(=O)c2ccc(NCCCN3CCC(C)CC3)c([N+](=O)[O-])c2)c1 [MLS000689409-01] | 7500 |  |  | viability at 66 h (in vitro; [3]): 108%
CCCN(CCC)CCCNc1ccc(C(=O)Nc2cccc(OC)c2)cc1[N+](=O)[O-] [MLS000689411-01] | 5960 | 106 | 104 | 
Cc1ccc(NC(=O)c2ccc(NCCCN3CCC(C)CC3)c([N+](=O)[O-])c2)cc1F [MLS000689412-01] | 6680 | 106 | 104 | 
CCC(=O)N(C1=C(NC(C)C)C(=O)c2ccccc2C1=O)C(C)C [MLS000696323-01] | 2370 | 106 | 105 | 
CCCn1c2c(c(=N)c3c1CCC3)CCCC2 [MLS000702605-01] | 10600 |  |  | viability at 66 h (in vitro; [3]): 93.8%
Cc1nn(-c2nnc(NCc3ccccc3)nn2)c(C)c1Br [MLS000704225-01] | 841 | 105 | 92 | 
CCCCCSc1cc(O)c(C(CNC)C(C)C)cc1OC (stereo not drawn) [MLS000704380-01] | 168 |  |  | viability at 48 h, 1 µM (in vitro): 106%; viability at 48 h, 3 µM (in vitro): 101%
CCOC(=O)c1c(CN(C)C)n(-c2ccc(C)cc2)c2cc(Br)c(O)cc12 [MLS000705141-01] | 4220 | 101 | 101 | 
CC(CCc1ccccc1)NCC(O)c1cccc([N+](=O)[O-])c1 (stereo not drawn) [MLS000712395-01] | 473 | 104 | 106 | 
CCOC(=O)c1c(CNc2ccncc2)n(C)c2cc(Br)c(O)cc12 [MLS000714612-01] | 2660 | 90 | 86 | 
O=C(c1cnn2c(C(F)F)cc(-c3ccccc3)nc12)N1CCCCC1c1cccnc1 (stereo not drawn) [MLS000728797-01] | 8410 | 102 |  | viability at 48 h (in vitro; [3]): 102%
CC(C)N1C(=S)N(Cc2ccco2)C(=O)C1CC(=O)Nc1ccccc1 (stereo not drawn) [MLS000729199-01] | 1680 | 99 | 109 | 
COc1ccc(C(C(=O)Nc2ccc(C(C)C)cc2)N(Cc2ccco2)C(=O)CC2NC(=O)NC2=O)cc1 (stereo not drawn) [MLS000729756-01] | 6680 | 99 | 94 | 
O=C(Nc1ccc(C2=NCCN2)cc1)c1ccc(C(=O)Nc2ccc(C3=NCCN3)cc2)c([N+](=O)[O-])c1 [MLS000737369-01] | 237 | 94 | 85 | 
CCN1CCC(Nc2ccnc3cc(Cl)ccc23)CC1 [MLS000737411-01] | 188 | 99 | 100 | 
Oc1ccc(Nc2ccnc3cc(Cl)ccc23)cc1 [MLS000737975-01] | 1680 |  |  | viability at 66 h (in vitro; [3]): 96.9%
O=C1C=C(O)C=CC1=CNNc1ccnc2cc(Cl)ccc12 [MLS000759655-01] | 596 | 101 |  | viability at 48 h (in vitro; [3]): 101%

Compound | AC50 [1, 2] [nM] | viability at 48 h, 1 µM (in vitro; [3]) [%] | viability at 48 h, 3 µM (in vitro; [3]) [%] | other results
O=C(O)c1ccc(N/N=C/c2cn(-c3ccccc3)nc2-c2cccs2)cc1 [MLS000759699-01] | 2660 | 112 | 103 | 
COc1ccc2ccc(O)c(CN3CC=C(c4ccccc4)CC3)c2c1 [MLS000760157-01] | 8410 |  |  | viability at 48 h, 1 µM (in vitro): 107%; viability at 48 h, 3 µM (in vitro): 101%
O=S(=O)(c1ccc2ccccc2c1)N1CCN(/C(S)=N/c2ccccc2F)CC1 [MLS000760214-01] | 4220 | 103 | 102 | 
CCCCNc1nc2sc3c(c2c(=O)n1-c1cccc(Cl)c1)CCN(C)C3 [MLS000762857-01] | 9440 | 106 |  | viability at 48 h (in vitro; [3]): 106%
COc1ccc(-c2csc3ncnc(Cl)c23)cc1 [MLS000765103-01] | 4220 | 86 | 86 | 
Nc1cc2ccncc2c2ccccc12 [MLS000766157-01] | 266 | 98 | 92 | 
O=C(Nc1cccc(-c2nc3ccccc3[nH]2)c1)c1ccc(C(=O)Nc2cccc(-c3nc4ccccc4[nH]3)c2)cc1 [MLS000766212-01] | 2660 | 105 | 96 | 
CCC1(OC(=O)CN)C(=O)OCc2c1cc1n(c2=O)Cc2cc3ccccc3nc2-1 (stereo not drawn) [MLS000766263-01] |  |  |  | AC50 ([1]; Plasmodium falciparum, DD2, Erythrocyte): 6680 nM; viability (in vitro): 24.7%
O=C1/C(=C/Nc2cccc(S(=O)(=O)NC3=NCCCCC3)c2)c2ccccc2C(=O)N1Cc1ccccc1 [MLS000775273-01] | 13300 |  |  | viability at 66 h (in vitro; [3]): 93.2%
CC(C)CCNC(=O)c1cc(C(=O)c2cc(Br)ccc2O)cn(CCC(C)C)c1=O [MLS000775608-01] | 944 |  |  | viability at 66 h (in vitro): 105%
C=C(C)CSc1nc2sc3c(c2c(=O)n1C1CCCCC1)CCN(C)C3 [MLS000779440-01] | 2370 | 98 | 91 | 
Cn1nc(C(F)(F)F)c(-c2cccc(C(F)(F)F)c2)c1NC(=O)Nc1ccc(F)cc1 [MLS000830770-01] | 2370 | 98 | 103 | 
CC(NCc1ccccc1)c1ccccc1O (stereo not drawn) [MLS000850790-01] | 5310 |  |  | viability at 66 h (in vitro; [3]): 96.3%
C=CC1CN2CCC1CC2C(OC(C)=O)c1ccnc2ccc(OC)cc12 (stereo not drawn) [MLS000851200-01] | 1680 |  |  | viability at 66 h (in vitro): 99.9%
COC(=O)c1c(-c2c(Cl)cccc2Cl)noc1NC(=O)NN1CCCCC1 [MLS000861266-01] | 2370 | 93 | 87 | 
Oc1ccc(C2NCc3ccccc3-n3cccc32)cc1Cl (stereo not drawn) [MLS000878874-01] |  |  |  | AC50 ([1]; read-out: AC50): 1190 nM; viability at 66 h (in vitro): 108%
COc1cc(O)c(C(CCN2CCCC(C)C2)c2cc(OC)c(OC)c(OC)c2)c(OC)c1 (stereo not drawn) [MLS000879467-01] | 1880 | 90 | 88 | 
COc1ccc(C(CCN2CCCCC2)c2c(O)cc(OC)cc2OC)cc1 (stereo not drawn) [MLS000879486-01] | 1330 | 90 | 85 | 
CCN(CC)CCC(c1ccc(OC)cc1)c1c(O)cc(OC)cc1OC (stereo not drawn) [MLS000879488-01] | 6680 |  |  | viability at 66 h (in vitro; [3]): 99.6%

Reference: publication PMC7822874, “Chemoprotective antimalarials identified through quantitative high-throughput screening of Plasmodium blood and liver stage parasites” (Scientific Reports, 2021)
